This is an account of results in patent US9416134B2 (Signal Pharmaceuticals, LLC, priority 2014, dated 2016).

Data set [1] in a line: Water solubility of Form 1 (observation from slurry experiment in water). The data set is classed as physicochemical. How it is done: After the slurry time, the solids were separated from the solutions by centrifugation, harvested wet and analyzed by XRPD and digital imaging. The solids were then exposed to accelerated aging conditions (2 days at 40° C./75% RH), followed by XRPD re-analysis.
The slurry experiment in water for two weeks at room temperature produced the anhydrous starting material, Form 1.

Data set [2] can be described thus: Feasibility study on Form 1 (solubility in freeze-drying solvent mixtures). Type of data set: physicochemical. The note with it: thermodynamic from solid. How it is done: The freeze drying experiments were performed in 1.8 ml vials. Approximately 20 mg of starting material were weight in a HPLC vial and dissolved in five different solvent mixtures. […] These two experimental samples were freeze-dried in liquid nitrogen, followed by placing the vials in a freeze-dryer for 24 hours. The obtained solid was then harvested and analyzed by XRPD and digital imaging.
Grinding experiments were performed in stainless steel grinding vials, containing 2 stainless steel grinding balls and a frequency of 30 Hz. Following the experiments, XRPD analysis was performed to assess the crystallinity of the materials.

SMILES strings stand for the structures. In brackets after ≈: the same amount, converted by molar mass.

With `CCN1C(=O)CNc2ncc(-c3ccc(-c4nc[nH]n4)nc3C)nc21` [Form 1, 1-ethyl-7-(2-methyl-6-(1H-1,2,4-triazol-3-yl)pyridin-3-yl)-3,4-dihydropyrazino[2,3-b]pyrazin-2(1H)-one], in data set [1], the Solubility in water entry is listed as “practically insoluble”. Besides, the solubility in data set [2] (aqueous with cosolvent or surfactant or cyclodextrin, THF/Water (50/50), 25.1 mg in 1000 μL, not dissolved) is less than 25 mg/mL; in data set [2] (organic solvent or mixture, Ethanol/water (90/10), 24.2 mg in 400 μL, not dissolved) it was less than 60 mg/mL; in data set [2] (organic solvent or mixture, TFE/water (90/10), 20.7 mg in 1000 μL, dissolved), 21 mg/mL (≈ 62.4 mM); in data set [2] (organic solvent or mixture, TFE, 21.9 mg in 1000 μL, dissolved), 22 mg/mL (≈ 65.4 mM); in data set [2] (organic solvent or mixture, THF/water (90/10), 24.8 mg in 1000 μL, not dissolved) it was less than 25 mg/mL.
